# In patent publication US4622321A, “Oxadiazolylimidazobenzodiazepine, compositions, and method” (AS Ferrosan, priority 1985, dated 1986):
# Tests used:
# [1] = test system: benzodiazepine receptors; assay: In vivo inhibition of 3H-flunitrazepam binding to mouse forebrain membranes (Procedure 130); set-up: species or system mice; settings: for ED50 binding in vivo: i.p. 15 min before 3H-FNM i.v., dose which inhibits 50% of specific 3H-FNM binding, mouse forebrain
# Description: I. In vivo inhibition of ^3 H-flunitrazepam binding to mouse forebrain membranes by test substances administered intraperitoneally. (Procedure 130)
# Twenty minutes after a dose of ^3 H-flunitrazepam (^3 H-FNM) (200 μCi/kg, i.v.) the amount of specific ^3 H-FNM binding to brain benzodiazepine receptors has reached its maximal value.
# Suspensions of test substances (2 mg/ml) are prepared in 5% Duphasol-X* by sonification for 10 min using a Branson B15 microtip ultrasonifier (setting 7). Groups of three mice (female, NMR, 18-22 gram) are injected with the test substance at 100 mg/kg intraperitoneally. Fifteen minutes after test substance administration the mice are challenged with 4 μCi intraveneously of ^3 H-FNM (70-90 Ci/mole) in 200 μl physiological saline. Twenty minutes after ^3 H-FNM administration mice are sacrificed by decapitation, the forebrains rapidly excised (within 30 sec) and homogenized in 12 ml of icecold 25 mM KH2 PO4, pH 7.1, using an Ultra-Turrax homogenizer fitted with an N 10 shaft. Two aliquots of 1 ml are immediately filtered through Whatman GF/C glassfibre filters and washed with 2×5 ml of the above mentioned buffer. The amounts of radioactivity on the filters are determined by conventional scintillation counting. One group of untreated mice serves as controls. One to three mice are injected with 25 mg/kg clonazepam i.p. 30 minutes before ^3 H-FNM to determine the amount of non-specific ^3 H-FNM binding, which should be between 8-15% of total binding.
# *(™Duphar; castor-oil-ethylene oxide derivative for emulsifying and solubilizing oil and other water-insoluble substances)
# When doses of 100 mg/kg inhibit more than 50% of specific ^3 H-flunitrazepam binding; test substances are administered in doses, which are factors of 3.16 times lower than 100 mg/kg.
# The ED50 for a test substance is defined as that dose which inhibits 50% of specific ^3 H-FNM binding. Specific binding is the amount of binding in controls minus the amount binding in clonazepam-treated mice.
# The ED50 value is determined from dose response curves. If only one dose of test substance is administered the ED50 value is calculated as follows, provided that the inhibition of specific binding is within the range of 25-75%: [formula] where Co is specific binding in controls and Cx is specific binding in mice treated with test substance.
# [2] = test system: pentylenetetrazol-induced clonic convulsions in mice; assay: Pentazol clonic convulsions in mice, i.p. (Procedure 400); type: in vivo; settings: for ED50: Mus musculus, ip, i.p. 30 min before 150 mg/kg pentylenetetrazol s.c., seizures inhibited in 50% of the animals, read-out: ED50, activity against pentazol induced convulsions, clonic
# Description: II. Pentazol clonic conv. mice (i.p.) (Procedure 400)
# (§1) Pentylenetetrazol induces clonic and tonic convulsions in mice at doses of 60-120 mg/kg s.c. The mechanism is unknown but seems to be due to some effects through the GABA receptor/benzodiazepine receptor/chloride ionophore complex. Antagonism of convulsions induced by maximal doses of pentylenetetrazol is considered predictive for drugs effective against petit mal epilepsia and anxiety.
# 150 mg/kg pentylenetetrazol dissolved in 0.9% NaCl is given by the subcutaneous route in volumes of 15 ml/kg to male or female NMRI mice weighing 20-25 g 30 min after an intraperitoneal injection of a test compound.
# The ED50 value is calculated as the dose in μg/kg at which seizures are inhibited in 50% of the animals using a computer program based on the method of Litchfield and Wilcoxon (1949).
# [3] = test system: pentylenetetrazol-induced tonic convulsions in mice; assay: Pentazol tonic convulsions in mice, i.p. (Procedure 401); type: in vivo; settings: for ED50: Mus musculus, ip, i.p. 30 min before 150 mg/kg pentylenetetrazol s.c., seizures inhibited in 50% of the animals, read-out: ED50, activity against pentazol induced convulsions, tonic
# Description: III. Pentazol tonic conv. mice i.p. (Procedure 401)
# as §1, with “seem” for “seems”
# 150 mg/kg pentylenetetrazol (Pentazol, Sigma) dissolved in 0.9% NaCl is given by the subcutaneous route in volumes of 15 ml/kg to male or female NMRI mice weighing 20-25 g 30 min after an intraperitoneal injection of a test compound.
# The ED50 value is calculated as the dose in μg/kg where seizures are inhibited in 50% of the animals using a computer program based on the method of Litchfield and Wilcoxon (1949).
# [4] = compared to analogue (D), Roche EP 150,040 ex. 44
SMILES,"times as active in binding affinity for the benzodiazepine receptor [1, 4]",times more as active in binding affinity for the benzodiazepine receptor ([1]; compared to compound E),ED50 binding in vivo [1],ED50 [2],"times as active in protecting against pentetrazol induced clonic convulsions [2, 4]",times as active in protecting against pentetrazol induced clonic convulsions ([2]; compared to compound E),ED50 [3],"times as active in protecting against pentetrazol induced tonic convulsions [3, 4]",times as active in protecting against pentetrazol induced tonic convulsions ([3]; compared to compound E)
"CN1Cc2c(-c3noc(C4CC4)n3)ncn2-c2ccccc2C1=O [A, 3-(5-cyclopropyl-1,2,4-oxadiazol-3-yl)-5,6-dihydro-5-methyl-6-oxo-4H-imidazo[1,5-a][1,4]benzodiazepine]",more than 4 times,12 times,80 µg/kg,0.07 mg/kg,approximately 40 times,185 times,0.03 mg/kg,10 times,33 times
CC(C)c1noc(-c2ncn3c2CN(C)C(=O)c2ccccc2-3)n1 [C],,,600 µg/kg,3 mg/kg,,,1.7 mg/kg,,
CCc1nc(-c2ncn3c2CN(C)C(=O)c2ccccc2-3)no1 [B],,,"1,800 μg/kg",27 mg/kg,,,1.3 mg/kg,,
CN1Cc2c(-c3nc(C4CC4)no3)ncn2-c2ccccc2C1=O [D],,,340 µg/kg,2.7 mg/kg,,,0.3 mg/kg,,
O=C1c2c(Cl)cccc2-n2cnc(-c3noc(C4CC4)n3)c2C2CCCN12 (stereo not drawn) [E],,,960 µg/kg,13 mg/kg,,,1 mg/kg,,
